In US20130330358A1, “CRYSTAL STRUCTURE AND PEPTIDE INHIBITORS OF HAUSP DEUBIQUITINASE” (priority 2011, published 2013):

Assays:
[1] = target: T1, HAUSP TRAF domain HAUSP^62-205 (Homo sapiens, UniProt Q93009); experiment: biochemical; assay type: binding; details: ITC, 20° C.; read-out: Kd
T1 construct: HAUSP^62-205, and HAUSP^62-560 were fused to a hexahistidine-tag2 and expressed in E. coli BL21 (DE3) RIPL cells; hexahistidine (cleaved yes); made in house; host or cells: E. coli BL21 (DE3) RIPL
T1 sequence (Q93009 62-205): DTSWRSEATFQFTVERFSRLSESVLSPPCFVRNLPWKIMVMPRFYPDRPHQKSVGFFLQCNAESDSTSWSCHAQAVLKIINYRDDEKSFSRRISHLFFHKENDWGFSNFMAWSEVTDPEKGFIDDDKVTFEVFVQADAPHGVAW
Procedure: FIG. 5. Typical isothermal titration calorimetric measurements of the interactions between the HAUSP TRAF domain and the vIRF4 protein derivatives or other peptides. Purified proteins and synthesized peptides were reconstituted in 150 mM NaCl and 10 mM HEPES (pH 7.0). The calorimetric assays were performed using a VPITC system. All experiments were carried out with a stirring speed of 300 rpm at 20° C., and the thermal power was recorded every 10 s. Data were analyzed using the ORIGIN software package (version 7.0). […] Each titration against the HAUSP TRAF domain is indicated in each panel.
Purified proteins and synthesized peptides (Peptron Inc., Deajeon, Korea) were reconstituted in 150 mM NaCl and 10 mM HEPES (pH 7.0). The calorimetric assays were performed using a VP-ITC system (MicroCal Inc., Northampton, Mass.). Samples were degassed by vacuum aspiration for 15 min prior to loading. All experiments were carried out with a stirring speed of 300 rpm at 20° C., and the thermal power was recorded every 10 s. Data were analyzed using the ORIGIN software package (version 7.0) supplied with the instrument. […]

[2] = target: T1, HAUSP TRAF domain HAUSP^62-205; experiment: Size exclusion chromatography, complex formation in 5-fold excess of MDM2^137-152; assay type: binding; details: in the presence of a 5-fold molar excess of MDM2 peptide
HAUSP [3] = target: T2, HAUSP (Homo sapiens, UniProt Q93009); details: time course, K48-Ub3-7 chains, 37° C. (FIG. 2e)
T2 sequence (Q93009 whole entry): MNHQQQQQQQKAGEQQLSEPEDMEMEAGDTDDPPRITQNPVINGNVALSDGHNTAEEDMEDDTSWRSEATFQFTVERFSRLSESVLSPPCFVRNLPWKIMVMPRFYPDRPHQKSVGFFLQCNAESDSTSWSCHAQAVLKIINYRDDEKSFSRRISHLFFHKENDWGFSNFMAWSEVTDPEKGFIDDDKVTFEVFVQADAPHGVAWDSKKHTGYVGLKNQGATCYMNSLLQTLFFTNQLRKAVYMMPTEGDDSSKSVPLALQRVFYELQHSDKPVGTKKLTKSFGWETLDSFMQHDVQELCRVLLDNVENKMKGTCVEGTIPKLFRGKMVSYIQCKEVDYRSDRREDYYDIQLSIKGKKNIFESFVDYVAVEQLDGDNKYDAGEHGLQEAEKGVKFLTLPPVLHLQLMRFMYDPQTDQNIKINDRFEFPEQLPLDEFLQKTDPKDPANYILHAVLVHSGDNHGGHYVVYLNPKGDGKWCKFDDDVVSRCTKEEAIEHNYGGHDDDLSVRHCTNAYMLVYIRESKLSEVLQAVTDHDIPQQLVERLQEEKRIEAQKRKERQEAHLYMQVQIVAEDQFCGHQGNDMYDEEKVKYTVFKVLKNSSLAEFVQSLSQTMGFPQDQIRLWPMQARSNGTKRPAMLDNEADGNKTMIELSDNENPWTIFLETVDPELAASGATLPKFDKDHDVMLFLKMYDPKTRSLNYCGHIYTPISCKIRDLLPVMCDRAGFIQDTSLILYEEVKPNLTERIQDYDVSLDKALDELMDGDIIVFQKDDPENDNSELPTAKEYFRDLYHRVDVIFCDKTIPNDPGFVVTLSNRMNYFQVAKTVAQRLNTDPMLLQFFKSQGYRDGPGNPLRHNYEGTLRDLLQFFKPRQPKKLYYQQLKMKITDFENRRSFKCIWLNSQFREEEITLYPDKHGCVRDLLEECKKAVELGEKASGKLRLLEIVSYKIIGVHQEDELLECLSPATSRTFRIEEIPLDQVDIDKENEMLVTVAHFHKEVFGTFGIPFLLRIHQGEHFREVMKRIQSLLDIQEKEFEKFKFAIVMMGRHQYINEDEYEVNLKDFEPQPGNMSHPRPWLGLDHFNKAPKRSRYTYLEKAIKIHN

[4] = system: SJSA-1 (MDM2 amplification); experiment: WST-1 cell growth assay, SJSA-1; assay type: cell-based, human; details: SJSA-1, 100 μM, compared with LnCap cells
[5] = system: MCF7 (MDMX amplification); experiment: WST-1 cell growth assay, MCF7; assay type: cell-based, human; details: MCF7, 100 μM, compared with LnCap cells
USP8 = target: T3, USP8 (Homo sapiens, UniProt P40818); assay type: biochemical; details: 0.25 μM purified USP8 pre-mixed with peptide 5 min
T3 sequence (P40818 1-1118): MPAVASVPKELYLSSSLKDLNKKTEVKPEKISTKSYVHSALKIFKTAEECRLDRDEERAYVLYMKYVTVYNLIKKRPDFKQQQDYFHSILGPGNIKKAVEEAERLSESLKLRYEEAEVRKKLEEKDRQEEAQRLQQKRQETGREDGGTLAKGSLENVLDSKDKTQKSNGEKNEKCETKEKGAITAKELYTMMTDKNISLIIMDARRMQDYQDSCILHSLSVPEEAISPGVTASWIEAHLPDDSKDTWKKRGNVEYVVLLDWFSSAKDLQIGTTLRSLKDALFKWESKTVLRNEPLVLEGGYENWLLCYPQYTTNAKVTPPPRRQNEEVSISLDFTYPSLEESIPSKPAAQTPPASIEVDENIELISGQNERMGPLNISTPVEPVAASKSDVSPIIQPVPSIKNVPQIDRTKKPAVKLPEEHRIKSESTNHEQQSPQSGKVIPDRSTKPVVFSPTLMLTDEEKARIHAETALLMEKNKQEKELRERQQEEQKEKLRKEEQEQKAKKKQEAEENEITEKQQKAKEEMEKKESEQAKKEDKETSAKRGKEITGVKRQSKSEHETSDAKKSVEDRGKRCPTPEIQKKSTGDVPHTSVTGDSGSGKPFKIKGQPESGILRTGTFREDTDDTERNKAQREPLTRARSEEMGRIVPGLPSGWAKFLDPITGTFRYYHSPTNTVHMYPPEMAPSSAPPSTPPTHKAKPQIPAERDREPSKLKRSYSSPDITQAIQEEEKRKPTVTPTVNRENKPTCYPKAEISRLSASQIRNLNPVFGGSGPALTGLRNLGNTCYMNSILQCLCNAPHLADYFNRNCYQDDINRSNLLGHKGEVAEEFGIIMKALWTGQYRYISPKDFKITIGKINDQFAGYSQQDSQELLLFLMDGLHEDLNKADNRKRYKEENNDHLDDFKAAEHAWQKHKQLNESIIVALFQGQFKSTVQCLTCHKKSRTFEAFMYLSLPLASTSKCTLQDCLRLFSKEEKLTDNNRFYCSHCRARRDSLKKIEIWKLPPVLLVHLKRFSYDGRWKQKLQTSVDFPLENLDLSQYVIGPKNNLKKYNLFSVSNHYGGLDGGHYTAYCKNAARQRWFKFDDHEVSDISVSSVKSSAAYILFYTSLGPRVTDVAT

HAUSP [6] = target: T2, HAUSP; experiment: In vitro DUB assay, purified HAUSP with ubiquitinated MDM2 as substrate; details: HAUSP preincubated with increasing amounts of peptide (FIG. 2f)
[7] = system: p53 and its transcriptional targets p21 and MDM2; experiment: Immunoblot of p53, MDM2, p21 and HAUSP levels in PEL cells; assay type: cell-based, human; details: FIG. 3d
Source text: The results were quantified as mean±s.d. of the combined results from three independent experiments; Data are mean±s. e. m.; n=200-300 cells from three independent experiments. *P<0.01 and **P<0.001. A Beckman Coulter Z2 Particle Count and size analyzer (BC Z2 CS analyzer) and trypan blue staining were used to determine cell death and for cell growth analysis. […] BrdU incorporation during the S phase is quantified as percentage of stained cells. […] Data are culled from 3 independent experiments. […] Apoptosis in VG1 cells was assessed at 48 h after treatment with 10 μM Nutlin-3a or 100 μM of each peptide by Annexin V/PI staining and measured by flow cytometry analysis. […] Numbers indicate the percentage of cells in each quadrant. […] VG1 and BJAB cells were treated with the same dose as used in (b) and (c) for 6 h and aliquots of cell lysates containing […] of protein were analyzed by IB with the indicated antibody. […] Tumors were measured by in vivo bioluminescence imaging. […] The results were quantified as mean±s.d. of the combined results from three independent experiments; Data are mean±s. e. m.; n=200-300 cells from three independent experiments. *P<0.05 and **P<0.01. […]

C[C@H](NC(=O)[C@@H]1CCCN1C(=O)CNC(=O)[C@H](CCC(N)=O)NC(=O)[C@@H](N)CCC(=O)O)C(=O)N[C@@H](CC(=O)O)C(=O)N[C@@H](CC(=O)O)C(=O)N1CCC[C@H]1C(=O)NCC(=O)N[C@@H](CCC(=O)O)C(=O)NCC(=O)N1CCC[C@H]1C(=O)N[C@@H](CO)C(=O)N[C@H](C(=O)NCC(=O)O)[C@@H](C)O [EBNA1^435-449, reference compound]
Kd [1]: 480 ± 40 nM

CC[C@H](C)[C@H](NC(=O)[C@H](Cc1c[nH]c2ccccc12)NC(=O)[C@@H](NC(=O)[C@@H](N)CO)C(C)C)C(=O)N1CCC[C@H]1C(=O)N[C@H](C(=O)N[C@@H](CC(N)=O)C(=O)N[C@@H](CCC(=O)O)C(=O)NCC(=O)N[C@@H](C)C(=O)N[C@@H](CO)C(=O)N[C@H](C(=O)N[C@@H](CO)C(=O)NCC(=O)N[C@@H](CCSC)C(=O)O)[C@@H](C)O)C(C)C [vIRF4^202-216]
complex formation with the HAUSP TRAF domain [2]: formed a stable complex | HAUSP DUB activity, comparative kinetic analysis (HAUSP [3]): weakly attenuated HAUSP DUB activity | cell growth inhibition [4]: did not show as robust a susceptibility | cell growth inhibition [5]: did not show as robust a susceptibility | USP8 DUB activity (USP8): neither vif1 peptide nor vif2 peptide was capable of inhibiting USP8 DUB activity | HAUSP DUB activity against ubiquitinated MDM2 (HAUSP [6]): efficiently blocked HAUSP DUB activity | HAUSP levels [7]: Neither vif1 nor vif2 peptide treatment altered HAUSP levels

TRQVTQASSFTWRVPG [vif2]
HAUSP DUB activity, comparative kinetic analysis (HAUSP [3]): completely suppressed HAUSP DUB activity | cell growth inhibition [4]: did not show as robust a susceptibility | cell growth inhibition [5]: did not show as robust a susceptibility | USP8 DUB activity (USP8): neither vif1 peptide nor vif2 peptide was capable of inhibiting USP8 DUB activity | HAUSP DUB activity against ubiquitinated MDM2 (HAUSP [6]): efficiently blocked HAUSP enzymatic activity | HAUSP levels [7]: Neither vif1 nor vif2 peptide treatment altered HAUSP levels
